# Data from PubChem BioAssay (NCI).
# Where “and” joins values, the source holds several entries; their conditions need not be identical. Equal entries are not always repeated.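 Assay format: 96-well plates, 48-hour exposure. The concentration for 50% growth inhibition is given as GI50. The concentration for full growth arrest is given as TGI.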
# Assays:
# Experiment in all cases: NCI tumour cell line growth inhibition, 48 h
# [1] = system: NCI-H460 lung
# [2] = system: SR leukemia
# [3] = system: NCI-H522 lung
# [4] = system: SNB-75 CNS
# [5] = system: DLD-1 colon
# [6] = system: SN12K1 renal
# [7] = system: SF-295 CNS
# [8] = system: KM20L2 colon
# [9] = system: SW-620 colon
# [10] = system: T-47D breast
# [11] = system: COLO 205 colon
# [12] = system: DU-145 prostate
# [13] = system: HOP-92 NSCLC
# [14] = system: OVCAR-8 ovarian
# [15] = system: K-562 leukemia
# [16] = system: HOP-62 NSCLC
# [17] = system: XF 498 CNS
# [18] = system: M14 melanoma
# [19] = system: OVCAR-5 ovarian
# [20] = system: SN12C renal
# [21] = system: P388 leukemia
# [22] = system: SNB-78 CNS
# [23] = system: HOP-18 NSCLC
# [24] = system: SNB-19 CNS
# [25] = system: A498 renal
# [26] = system: HT29 colon
# [27] = system: SK-MEL-28 melanoma
# [28] = system: A549 NSCLC
compound,measurement,setting,value
C/C(=C\COc1ccc2ccc(=O)oc2c1)C1=CC(=O)C(C)(C)O1,GI50,[1],2.61 µM and 4.07 µM
same,TGI,[1],6.29 µM and 11.5 µM
same,TGI,[2],4.92 µM
same,GI50,[3],2.37 µM and 0.804 µM
same,TGI,[3],7.73 µM and 3.76 µM
same,GI50,[4],3.55 µM
same,TGI,[4],14.6 µM and 15.4 µM
same,TGI,[5],30.8 µM
same,TGI,[6],9.97 µM
same,GI50,[7],4.3 µM
same,TGI,[7],20.4 µM and 8.41 µM
same,TGI,[8],8.53 µM
same,GI50,[9],2.27 µM
same,TGI,[9],5.58 µM and 14.7 µM
same,TGI,[10],30.6 µM
same,GI50,[11],2.73 µM
same,TGI,[11],6.64 µM and 8.96 µM
same,TGI,[12],7.34 µM
same,GI50,[13],2.38 µM
same,TGI,[13],7.24 µM and 9.92 µM
same,GI50,[14],2.18 µM
same,GI50,[15],1.85 µM
same,GI50,[16],6.12 µM
same,TGI,[16],39.7 µM and 14.1 µM
same,TGI,[17],7.74 µM
same,TGI,[18],16.3 µM
same,GI50,[19],3.19 µM
same,TGI,[19],10.8 µM and 20.9 µM
same,GI50,[20],3.34 µM
same,TGI,[20],14.1 µM and 10.8 µM
same,TGI,[21],8.39 µM
same,TGI,[22],61.3 µM
same,TGI,[23],80.5 µM
same,GI50,[24],2.94 µM
same,TGI,[24],8.22 µM and 30.5 µM
same,GI50,[25],2.79 µM
same,TGI,[25],7.32 µM and 9.56 µM
same,GI50,[26],3.55 µM
same,TGI,[26],13.3 µM and 7.83 µM
same,GI50,[27],4.82 µM
same,TGI,[27],18.3 µM and 10.1 µM
same,GI50,[28],4.18 µM
same,TGI,[28],47.2 µM and 51.9 µM
